{"source": "patent US9580411B2", "about": "“Substituted sulfonamide compounds” (Hoffmann-La Roche Inc., priority 2012, dated 2017)"}
{"target": "hTRPA1 (Homo sapiens (Human), UniProt O75762)", "sequence (O75762 whole entry)": "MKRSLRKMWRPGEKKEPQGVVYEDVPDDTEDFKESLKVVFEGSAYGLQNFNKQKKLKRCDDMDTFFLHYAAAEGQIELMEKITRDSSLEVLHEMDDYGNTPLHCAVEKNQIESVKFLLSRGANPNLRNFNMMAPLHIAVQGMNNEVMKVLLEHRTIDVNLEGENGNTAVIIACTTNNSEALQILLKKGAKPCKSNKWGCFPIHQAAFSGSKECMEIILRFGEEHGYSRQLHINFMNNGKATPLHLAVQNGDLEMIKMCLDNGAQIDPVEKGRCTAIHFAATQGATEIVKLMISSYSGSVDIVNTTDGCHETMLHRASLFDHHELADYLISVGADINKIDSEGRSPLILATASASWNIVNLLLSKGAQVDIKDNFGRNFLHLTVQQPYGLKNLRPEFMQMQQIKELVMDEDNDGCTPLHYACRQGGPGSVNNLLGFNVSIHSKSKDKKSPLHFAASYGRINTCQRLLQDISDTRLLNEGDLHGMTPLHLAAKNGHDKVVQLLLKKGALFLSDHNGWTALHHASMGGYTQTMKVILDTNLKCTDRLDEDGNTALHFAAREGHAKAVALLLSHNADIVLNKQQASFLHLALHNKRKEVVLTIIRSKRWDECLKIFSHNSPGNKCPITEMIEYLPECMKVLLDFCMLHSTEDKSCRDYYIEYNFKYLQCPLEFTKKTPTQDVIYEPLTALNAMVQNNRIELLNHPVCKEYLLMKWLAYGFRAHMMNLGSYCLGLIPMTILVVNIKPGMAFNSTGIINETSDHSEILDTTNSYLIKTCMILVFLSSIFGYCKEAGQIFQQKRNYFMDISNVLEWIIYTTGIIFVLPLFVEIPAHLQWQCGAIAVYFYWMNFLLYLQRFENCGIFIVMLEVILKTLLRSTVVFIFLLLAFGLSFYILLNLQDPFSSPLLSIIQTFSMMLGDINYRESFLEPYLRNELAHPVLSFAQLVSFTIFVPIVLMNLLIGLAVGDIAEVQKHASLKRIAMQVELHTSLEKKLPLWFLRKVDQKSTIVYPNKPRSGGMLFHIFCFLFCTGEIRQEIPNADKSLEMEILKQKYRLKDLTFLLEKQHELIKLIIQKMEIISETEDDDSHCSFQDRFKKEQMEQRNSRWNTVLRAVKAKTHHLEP", "assay": "IC50 determination on human TRPA1 channel, Hamamatsu FDSS calcium fluorescence, CHO cells", "assay_type": "cell-based", "settings": "CHO cells expressing human TRPA1; block of cinnamaldehyde induced calcium influx; Hill coefficient fixed to 1.5; read-out: hTRPA1 AUC IC50", "experimental": "IC50s (effective concentration) of compounds on the human TRPA1 channel were determined using a Hamamatsu FDSS fluorescence plate reader. CHO cells expressing human TRPA1 were plated into 384-well plates, incubated overnight at 37° C., and loaded with BD calcium indicator dye for 1 hr at 37° C. followed by 15 minutes at room temperature. The assay buffer was Hank's Balanced Salt Solution (HBSS) containing 20 mM HEPES (pH readjusted to 7.4) along with 0.02% BSA.\nFollowing dye load and plate cool down, compounds were added to the cells using the FDSS while monitoring fluorescence to determine whether any of the test compounds have TRPA1 agonist activity. Plates were then incubated with compound for 20 minutes at room temperature prior to adding agonist. Following this incubation, […] cinnamaldehyde was added to all wells of the plate and block of this cinnamaldehyde induced calcium influx was measured.\nFixing the Hill coefficient will generally reduce variability of the IC50 determination. The IC50s were examined by eye to make sure the MIN and MAX points were set correctly prior to validation of the results.", "units": {"IC50": "nM"}}
{"smiles": "CC(C)N(CC(=O)NCc1cccc(-c2cnc(N3CCC[C@H]3C)nc2)c1)S(=O)(=O)c1ccc(F)cc1", "note": "(single isomer, unassigned) [79-(R)]", "IC50": 55}
{"smiles": "CC(C)N(CC(=O)NCc1cccc(-c2cnc(N3CCC[C@@H]3C)nc2)c1)S(=O)(=O)c1ccc(F)cc1", "note": "(single isomer, unassigned) [79-(S)]", "IC50": 38}
{"smiles": "CC(C)N(CC(=O)NCc1cccc(N2CCCC2)c1)S(=O)(=O)c1ccc(F)cc1", "note": "[Example 77, 2-(4-fluoro-N-isopropylphenylsulfonamido)-N-(3-(pyrrolidin-1-yl)benzyl)acetamide]", "IC50": 883}
{"smiles": "CC(C)N(CC(=O)NCc1cccc(C2CC2)c1)S(=O)(=O)c1ccc(F)cc1", "note": "[Example 78, N-(3-cyclopropylbenzyl)-2-(4-fluoro-N-isopropylphenylsulfonamido)acetamide]", "IC50": 1000}
{"smiles": "CC(C)N(CC(=O)NCc1cc(N2CCC(C(F)(F)F)CC2)ncn1)S(=O)(=O)c1ccc(F)cc1", "note": "[Example 80, 2-(4-Fluoro-N-isopropylphenylsulfonamido)-N-((6-(4-(trifluoromethyl)piperidin-1-yl)pyrimidin-4-yl)methyl)acetamide]", "IC50": 251}
{"smiles": "CC(C)N(CC(=O)NCc1cc(N2CCC(F)(F)CC2)ncn1)S(=O)(=O)c1ccc(F)cc1", "note": "[Example 81, N-((6-(4,4-Difluoropiperidin-1-yl)pyrimidin-4-yl)methyl)-2-(4-fluoro-N-isopropylphenylsulfonamido)acetamide]", "IC50": 3000}
{"smiles": "CC(C)N(CC(=O)NCc1cccc(-c2ccc(C(F)(F)F)cc2)c1)S(=O)(=O)c1ccn(C)n1", "note": "[Example 82, 2-(N-Isopropyl-1-methyl-1H-pyrazole-3-sulfonamido)-N-((4′-(trifluoromethyl)biphenyl-3-yl)methyl)acetamide]", "IC50": 2400}
{"smiles": "[2H]C([2H])(C(=O)NCc1cc(-c2ccc(C(F)(F)F)nc2)ncn1)N(C(C)C)S(=O)(=O)c1ccc(F)cc1", "note": "[Example 83, 2,2-Dideuterio-2-(4-fluoro-N-isopropylphenylsulfonamido)-N-((6-(6-(trifluoromethyl)pyridin-3-yl)pyrimidin-4-yl)methyl)acetamide]", "IC50": 58}
{"smiles": "CC(C)N(C1(C(=O)NCc2cc(-c3ccc(C(F)(F)F)nc3)ncn2)CC1)S(=O)(=O)c1ccc(F)cc1", "note": "[Example 84, 1-(4-Fluoro-N-isopropylphenylsulfonamido)-N-((6-(6-(trifluoromethyl)pyridin-3-yl)pyrimidin-4-yl)methyl)cyclopropanecarboxamide]", "IC50": 29}
{"smiles": "O=C(CN(c1ccc(F)cc1)S(=O)(=O)c1ccc(F)cc1)NCc1cc(-c2ccc(C(F)(F)F)nc2)ncn1", "note": "[Example 86, 2-(4-fluoro-N-(4-fluorophenyl)phenylsulfonamido)-N-((6-(6-(trifluoromethyl)pyridin-3-yl)pyrimidin-4-yl)methyl)acetamide]", "IC50": 9}
